Assay results: paper PMC6245281, “Cytotoxic Steroidal Saponins from the Flowers of Allium leucanthum” (Molecules, 2008)

Experiments:
Assay type in all cases: cell-based
[1] = tested on: lung carcinoma (A549) cell line; assay: Cytotoxicity assay (resazurin reduction test), A549; conditions: Homo sapiens, A549 cells, 48 h incubation, read-out: IC50 (μM ± SD) A549
Description: (§1) Lung carcinoma (A549), colon adenocarcinoma (DLD-1) and normal skin fibroblast (WS1) human cell lines were purchased from the American Type Culture Collection (ATCC). All cell lines were cultured in minimum essential medium containing Earle’s salts and L-glutamine (Mediatech Cellgro, VA), to which 10% fetal bovine serum (Hyclone), vitamins (1X), penicillin (100 I.U./mL), streptomycin (100 μg/ml), essential amino acids (1X) and sodium pyruvate (1X) (Mediatech Cellgro, VA) were added. Cells were kept at 37°C in a humidified environment containing 5% CO2.
(§2) Exponentially growing cells were plated at a density of 5 × 10^3 cells per well in 96-well microplates (Costar, Corning inc.) in 100 µl of culture medium and were allowed to adhere for 16 hours before treatment. Then, 100 µl of increasing concentrations of extract or pure compounds dissolved in culture medium and DMSO (Sigma-Aldrich) were added. The final concentration of solvent in the culture medium was maintained at 0.25% (v/v) to avoid solvent toxicity. Cells were incubated for 48 h in the absence or in the presence of extract. Cytotoxicity was assessed using the resazurin reduction test as described by O’Brien) Fluorescence was measured on an automated 96-well Fluoroskan Ascent Fl plate reader (Labsystems) using an excitation wavelength of 530 nm and an emission wavelength of 590 nm. Cytotoxicity was expressed as the concentration of extract or compound inhibiting cell growth by 50% (IC50).

[2] = tested on: colon adenocarcinoma (DLD-1) cell line; assay: Cytotoxicity assay (resazurin reduction test), DLD-1; conditions: Homo sapiens, DLD-1 cells, 48 h incubation, read-out: IC50 (μM ± SD) DLD-1
Description: as §1, §2

[3] = tested on: normal skin fibroblast (WS1) cell line; assay: Cytotoxicity assay (resazurin reduction test), WS1; conditions: Homo sapiens, WS1 healthy cells, 48 h incubation, read-out: IC50 (μM ± SD) WS1
Description: as §1, §2

Compound	IC50 [1]	IC50 [2]	IC50 [3]
O=c1[nH]cc(F)c(=O)[nH]1 [5-fluorouracil, reference compound]	48 ± 18 µM	11 ± 2 µM	20 ± 2 µM
CC1CCC2(OC1)OC1CC3C4CC(O)C5CC(OC6OC(CO)C(OC7OC(CO)C(O)C(OC8OCC(O)C(O)C8O)C7OC7OC(CO)C(O)C(O)C7O)C(O)C6O)C(O)CC5(C)C4CCC3(C)C1C2C (centres unmarked) [Aginoside (3), aginoside]	5.8 ± 0.9 µM	7.9 ± 0.5 µM	3.6 ± 0.2 µM
C[C@@H]1CC[C@@]2(OC1)O[C@H]1C[C@H]3[C@@H]4C[C@@H](O)[C@H]5C[C@@H](O[C@@H]6O[C@H](CO)[C@H](O[C@@H]7O[C@H](CO)[C@@H](O)[C@H](O[C@@H]8OC[C@@H](O)[C@H](O)[C@H]8O)[C@H]7O[C@@H]7O[C@H](CO)[C@@H](O)[C@H](O)[C@H]7O)[C@H](O)[C@H]6O)CC[C@]5(C)[C@H]4CC[C@]3(C)[C@H]1[C@@H]2C [Compound 4, (25R)-5α-spirostane-3β,6β-diol 3-O-β-D-glucopyranosyl-(1→2)-[β-D-xylopyranosyl-(1→3)]-β-D-glucopyranosyl-(1→4)-β-D-galactopyranoside]	9 ± 1 µM	13 ± 1 µM	3.1 ± 0.1 µM
C[C@@H]1CC[C@@]2(OC1)O[C@H]1C[C@H]3[C@@H]4C[C@@H](O)[C@H]5C[C@@H](O[C@@H]6O[C@H](CO)[C@H](O[C@@H]7O[C@H](CO)[C@@H](O)[C@H](O)[C@H]7O[C@@H]7O[C@H](CO)[C@@H](O)[C@H](O)[C@H]7O)[C@H](O)[C@H]6O)[C@H](O)C[C@]5(C)[C@H]4CC[C@]3(C)[C@H]1[C@@H]2C [Compound 6, (25R)-5α-spirostane-2α,3β,6β-triol 3-O-β-D-glucopyranosyl-(1→2)-β-D-glucopyranosyl-(1→4)-β-D-galactopyranoside]	22 ± 2 µM	22 ± 2 µM	14.5 ± 0.5 µM
C[C@@H]1CC[C@@]2(OC1)O[C@H]1C[C@H]3[C@@H]4C[C@@H](O)[C@H]5C[C@@H](O[C@@H]6O[C@H](CO)[C@H](O[C@@H]7O[C@H](CO)[C@@H](O)[C@H](O[C@@H]8O[C@H](CO)[C@@H](O)[C@H](O)[C@H]8O)[C@H]7O[C@@H]7O[C@H](CO)[C@@H](O)[C@H](O[C@@H]8O[C@H](CO)[C@@H](O)[C@H](O)[C@H]8O)[C@H]7O)[C@H](O)[C@H]6O)CC[C@]5(C)[C@H]4CC[C@]3(C)[C@H]1[C@@H]2C [Compound 7, (25R)-5α-spirostane-3β,6β-diol 3-O-β-D-glucopyranosyl-(1→3)-β-D-glucopyranosyl-(1→2)-[β-D-glucopyranosyl-(1→3)]-β-D-glucopyranosyl-(1→4)-β-D-galactopyranoside]	7.8 ± 0.4 µM	8.9 ± 0.2 µM	7.7 ± 0.2 µM
CC1CCC2(OC1)OC1CC3C4CC(O)C5CC(OC6OC(CO)C(OC7OC(CO)C(O)C(OC8OC(CO)C(O)C(O)C8O)C7OC7OC(CO)C(O)C(O)C7O)C(O)C6O)CCC5(C)C4CCC3(C)C1C2C (centres unmarked) [Eruboside B (2), eruboside B]	5.3 ± 0.5 µM	8.2 ± 0.4 µM	3.6 ± 0.2 µM
COc1cc([C@@H]2c3cc4c(cc3[C@@H](O[C@@H]3O[C@@H]5CO[C@@H](C)O[C@H]5[C@H](O)[C@H]3O)[C@H]3COC(=O)[C@H]23)OCO4)cc(OC)c1O [Etoposide, reference compound]	1.1 ± 0.1 µM	4.8 ± 0.8 µM	–
C[C@@H]1CC[C@@]2(OC1)O[C@H]1C[C@H]3[C@@H]4C[C@@H](O)[C@H]5C[C@@H](O[C@@H]6O[C@H](CO)[C@H](O[C@@H]7O[C@H](CO)[C@@H](O)[C@H](O[C@@H]8O[C@H](CO)[C@@H](O)[C@H](O)[C@H]8O)[C@H]7O[C@@H]7O[C@H](CO)[C@@H](O)[C@H](O[C@@H]8O[C@H](CO)[C@@H](O)[C@H](O)[C@H]8O)[C@H]7O)[C@H](O)[C@H]6O)[C@H](O)C[C@]5(C)[C@H]4CC[C@]3(C)[C@H]1[C@@H]2C [Leucospiroside A (5), (25R)-5α-spirostane-2α,3β,6β-triol 3-O-β-glucopyranosyl-(1→3)-β-glucopyranosyl-(1→2)-[β-glucopyranosyl-(1→3)]-β-glucopyranosyl-(1→4)-β-galactopyranoside]	5 ± 0.1 µM	7.2 ± 0.1 µM	4.55 ± 0.07 µM
CC1CCC2(OC1)OC1CC3C4CC(O)C5CC(OC6OC(CO)C(OC7OC(CO)C(O)C(OC8OC(CO)C(O)C(O)C8O)C7OC7OC(CO)C(O)C(O)C7O)C(O)C6O)C(O)CC5(C)C4CCC3(C)C1C2C (centres unmarked) [Yayoisaponin C (1), yayoisaponin C]	3.7 ± 0.7 µM	5.6 ± 0.2 µM	3 ± 0.2 µM
